Results: patent publication US9150566B2, “2-(1,2,3-triazol-2-yl)benzamide and 3-(1,2,3-triazol-2-YL)picolinamide derivatives as orexin receptor antagonists” (ACTELION PHARMACEUTICALS LTD., priority 2011, dated 2015)
Where two headings read alike, the source gives them in different places.

Legend:
CYP3A4 = CYP3A4 (Homo sapiens (Human), UniProt P08684); assay: CYP3A4 inhibition assay (human liver microsomes, testosterone 6β-hydroxylation); details: read-out: CYP3A4 IC50, 40 μM testosterone
human orexin-2 receptor = human orexin-2 receptor (Homo sapiens (Human), UniProt O43614); assay: In vitro intracellular calcium measurements (FLIPR), antagonistic activity on orexin-2 receptor; format: cell-based; details: CHO cells expressing human orexin-2 receptor; FLIPR; 3 nM orexin-A agonist; 120 min antagonist incubation; geometric mean if determined several times; read-out: IC50 OX2
Summary of the method: (§1)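 CHO cells expressing human orexin-1 or orexin-2 receptor were seeded overnight, preincubated with antagonist for 120 min, then stimulated with agonist in a FLIPR Tetra.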

human orexin-1 receptor = human orexin-1 receptor (Homo sapiens (Human), UniProt O43613); assay: In vitro intracellular calcium measurements (FLIPR), antagonistic activity on orexin-1 receptor; format: cell-based; details: read-out: IC50 OX1
Summary of the method: as §1

[1] = CHO cells expressing human orexin-1 receptor, FLIPR, 3 nM orexin-A agonist, 120 min antagonist incubation, geometric mean if determined several times

CYP3A4, sequence (P08684 whole entry): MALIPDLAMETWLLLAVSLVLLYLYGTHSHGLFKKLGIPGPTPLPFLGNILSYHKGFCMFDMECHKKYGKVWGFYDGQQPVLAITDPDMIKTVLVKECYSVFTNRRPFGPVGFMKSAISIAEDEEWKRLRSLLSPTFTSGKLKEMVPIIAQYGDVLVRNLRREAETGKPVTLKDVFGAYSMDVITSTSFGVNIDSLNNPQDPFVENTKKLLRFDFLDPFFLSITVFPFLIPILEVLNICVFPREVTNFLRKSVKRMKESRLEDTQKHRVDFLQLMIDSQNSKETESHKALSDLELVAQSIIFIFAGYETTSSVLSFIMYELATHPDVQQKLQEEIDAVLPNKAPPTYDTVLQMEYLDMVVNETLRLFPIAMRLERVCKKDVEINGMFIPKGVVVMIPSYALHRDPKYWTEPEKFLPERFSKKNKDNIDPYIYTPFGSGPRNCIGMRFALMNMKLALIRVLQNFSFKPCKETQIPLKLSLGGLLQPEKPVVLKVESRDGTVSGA
human orexin-1 receptor, sequence (O43613 whole entry): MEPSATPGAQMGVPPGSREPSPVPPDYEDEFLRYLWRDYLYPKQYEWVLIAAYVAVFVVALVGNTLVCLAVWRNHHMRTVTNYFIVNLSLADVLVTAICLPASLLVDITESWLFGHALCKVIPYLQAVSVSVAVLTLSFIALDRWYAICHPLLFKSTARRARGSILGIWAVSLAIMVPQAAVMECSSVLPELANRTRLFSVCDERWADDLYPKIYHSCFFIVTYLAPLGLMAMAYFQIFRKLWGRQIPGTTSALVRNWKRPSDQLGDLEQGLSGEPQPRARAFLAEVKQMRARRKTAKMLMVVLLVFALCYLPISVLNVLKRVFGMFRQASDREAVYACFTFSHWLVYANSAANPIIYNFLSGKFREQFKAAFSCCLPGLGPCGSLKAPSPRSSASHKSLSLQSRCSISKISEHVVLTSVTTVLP
human orexin-2 receptor, sequence (O43614 whole entry): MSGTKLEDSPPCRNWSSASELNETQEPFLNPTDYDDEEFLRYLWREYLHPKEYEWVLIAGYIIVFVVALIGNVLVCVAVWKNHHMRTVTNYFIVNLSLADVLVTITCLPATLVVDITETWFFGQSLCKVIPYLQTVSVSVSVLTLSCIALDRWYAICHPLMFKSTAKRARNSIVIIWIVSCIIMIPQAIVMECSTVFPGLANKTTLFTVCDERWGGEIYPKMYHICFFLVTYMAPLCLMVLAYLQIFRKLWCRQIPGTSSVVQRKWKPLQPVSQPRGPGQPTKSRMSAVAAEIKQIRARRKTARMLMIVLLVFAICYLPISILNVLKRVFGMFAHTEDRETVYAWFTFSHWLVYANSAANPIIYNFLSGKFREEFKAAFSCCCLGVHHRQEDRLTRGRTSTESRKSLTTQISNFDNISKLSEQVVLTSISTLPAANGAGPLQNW

Row | SMILES | IC50 (CYP3A4) | IC50 (human orexin-2 receptor) | IC50 (human orexin-1 receptor; [1]) | IC50 (human orexin-1 receptor)
1 | O=C(c1cccc(Cl)c1-n1nccn1)N1CCOC[C@H]1Cc1cc(-n2nccn2)ccc1F [Example 135, (3-Chloro-2-[1,2,3]triazol-2-yl-phenyl)-[(R)-3-(2-fluoro-5-[1,2,3]triazol-2-yl-benzyl)-morpholin-4-yl]-methanone] | 30 µM | 1.88 µM | 0.016 µM | –
2 | O=C(c1ccc(C(F)(F)F)cc1-n1nccn1)N1CCOC[C@H]1Cc1cc(-n2nccn2)ccc1F [Example 138, [(R)-3-(2-Fluoro-5-[1,2,3]triazol-2-yl-benzyl)-morpholin-4-yl]-(2-[1,2,3]triazol-2-yl-4-trifluoromethyl-phenyl)-methanone] | 7.4 µM | 0.159 µM | 0.004 µM | –
3 | COc1cc(C(=O)N2CCOC[C@H]2Cc2cc(-n3nccn3)ccc2F)c(-n2nccn2)cc1Cl [Example 139, (4-Chloro-5-methoxy-2-[1,2,3]triazol-2-yl-phenyl)-[(R)-3-(2-fluoro-5-[1,2,3]triazol-2-yl-benzyl)-morpholin-4-yl]-methanone] | 13 µM | 0.191 µM | 0.01 µM | –
4 | Cc1ccc(C(=O)N2C[C@@H](C)OC[C@H]2Cc2cc(-n3ccnn3)ccc2F)c(-n2nccn2)c1 [Example 141, [(2R,5R)-5-(2-Fluoro-5-[1,2,3]triazol-1-yl-benzyl)-2-methyl-morpholin-4-yl]-(4-methyl-2-[1,2,3]triazol-2-yl-phenyl)-methanone] | 19 µM | 0.429 µM | 0.016 µM | –
5 | CC[C@@H]1CN(C(=O)c2cc(C)ccc2-n2nccn2)[C@H](Cc2cccc(-n3nccn3)c2)CO1 [Example 142, [(2R,5R)-2-Ethyl-5-(3-[1,2,3]triazol-2-yl-benzyl)-morpholin-4-yl]-(5-methyl-2-[1,2,3]triazol-2-yl-phenyl)-methanone] | 9.2 µM | 0.287 µM | 0.005 µM | –
6 | CC[C@@H]1CN(C(=O)c2ccccc2-n2nccn2)[C@H](Cc2cccc(-n3nccn3)c2)CO1 [Example 143, [(2R,5R)-2-Ethyl-5-(3-[1,2,3]triazol-2-yl-benzyl)-morpholin-4-yl]-(2-[1,2,3]triazol-2-yl-phenyl)-methanone] | 9.1 µM | 0.485 µM | 0.019 µM | –
7 | CC[C@@H]1CN(C(=O)c2ccc(C)cc2-n2nccn2)[C@H](Cc2cccc(-n3nccn3)c2)CO1 [Example 144, [(2R,5R)-2-Ethyl-5-(3-[1,2,3]triazol-2-yl-benzyl)-morpholin-4-yl]-(4-methyl-2-[1,2,3]triazol-2-yl-phenyl)-methanone] | 9.6 µM | 0.104 µM | 0.005 µM | –
8 | O=C(c1ccccc1-n1nccn1)N1CCOC[C@H]1Cc1cc(F)cc(-n2nccn2)c1 [Example 145, [(R)-3-(3-Fluoro-5-[1,2,3]triazol-2-yl-benzyl)-morpholin-4-yl]-(2-[1,2,3]triazol-2-yl-phenyl)-methanone] | 22 µM | 1.51 µM | 0.034 µM | –
9 | Cc1ccc(C(=O)N2CCOC[C@H]2Cc2cc(F)cc(-n3nccn3)c2)c(-n2nccn2)c1 [Example 146, [(R)-3-(3-Fluoro-5-[1,2,3]triazol-2-yl-benzyl)-morpholin-4-yl]-(4-methyl-2-[1,2,3]triazol-2-yl-phenyl)-methanone] | 40 µM | 0.282 µM | – | 0.003 µM
10 | Cc1ccc(C(=O)N2C[C@@H](C)OC[C@H]2Cc2cc(-c3ncccn3)ccc2F)c(-n2nccn2)c1 [Example 149, [(2R,5R)-5-(2-Fluoro-5-pyrimidin-2-yl-benzyl)-2-methyl-morpholin-4-yl]-(4-methyl-2-[1,2,3]triazol-2-yl-phenyl)-methanone] | 31 µM | 0.263 µM | 0.004 µM | –
11 | Cc1cccc(C(=O)N2C[C@@H](C)OC[C@H]2Cc2cc(-c3ncccn3)ccc2F)c1-n1nccn1 [Example 150, [(2R,5R)-5-(2-Fluoro-5-pyrimidin-2-yl-benzyl)-2-methyl-morpholin-4-yl]-(3-methyl-2-[1,2,3]triazol-2-yl-phenyl)-methanone] | 32 µM | 0.506 µM | 0.009 µM | –
